Experimental data reported in ChEMBL document CHEMBL1201862, “PubChem BioAssay data set” (2004).
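Tested at 5 concentrations; 48 h exposure; 96-well plates; endpoints linearly interpolated, else capped at highest concentration. GI50 is the concentration that inhibits growth by half.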 Activity calls are given as the source filed them. Cut-off read from the data, not from the text of the source: active = GI50 up to about 1.1 µM and inactive = higher.

Experiments:
Assay in all cases: growth of human tumour cells (NCI), 48 h
OVCAR-5 = system: OVCAR-5
COLO 205 = system: COLO 205
ACHN = system: ACHN
SR = system: SR
HL-60 = system: HL-60
A549 = system: A549
RXF 393 = system: RXF 393
UO-31 = system: UO-31
MDA-N = system: MDA-N
Malme-3M = system: Malme-3M
HOP-92 = system: HOP-92
U-251 = system: U-251
M14 = system: M14
NCI-H522 = system: NCI-H522
KM12 = system: KM12
DU-145 = system: DU-145
NCI-H23 = system: NCI-H23
SF-268 = system: SF-268
SNB-75 = system: SNB-75
SK-MEL-5 = system: SK-MEL-5
TK-10 = system: TK-10
SF-539 = system: SF-539
SK-MEL-28 = system: SK-MEL-28
MOLT-4 = system: MOLT-4
MDA-MB-231 = system: MDA-MB-231
MDA-MB-435 = system: MDA-MB-435
OVCAR-3 = system: OVCAR-3
OVCAR-8 = system: OVCAR-8
SN12C = system: SN12C
NCI-H226 = system: NCI-H226
SK-OV-3 = system: SK-OV-3
PC-3 = system: PC-3
SNB-19 = system: SNB-19
IGROV-1 = system: IGROV-1
SW-620 = system: SW-620
CCRF-CEM = system: CCRF-CEM
UACC-62 = system: UACC-62
OVCAR-4 = system: OVCAR-4
A498 = system: A498
Hs-578T = system: Hs-578T
CAKI-1 = system: CAKI-1
K562 = system: K562
HT-29 = system: HT-29
786-0 = system: 786-0
HOP-62 = system: HOP-62
SF-295 = system: SF-295
T47D = system: T47D
UACC-257 = system: UACC-257
BT-549 = system: BT-549
HCT-116 = system: HCT-116
NCI-H460 = system: NCI-H460
EKVX = system: EKVX
LOX IMVI = system: LOX IMVI
MCF7 = system: MCF7
RPMI-8226 = system: RPMI-8226
SK-MEL-2 = system: SK-MEL-2
HCC 2998 = system: HCC 2998
HCT-15 = system: HCT-15
NCI/ADR-RES = system: NCI/ADR-RES

Measured: GI50

CC1C2CC(CC2O)C1(C)C (centres undefined)
inactive: OVCAR-5 > 100000 nM | COLO 205 > 100000 nM | ACHN > 100000 nM | SR > 100000 nM | HL-60 > 100000 nM | A549 > 100000 nM | RXF 393 > 100000 nM | UO-31 > 100000 nM | MDA-N > 100000 nM | Malme-3M > 100000 nM | HOP-92 > 100000 nM | U-251 > 100000 nM | M14 > 100000 nM | NCI-H522 > 100000 nM | KM12 > 100000 nM | DU-145 > 100000 nM | NCI-H23 > 100000 nM | SF-268 > 100000 nM | SNB-75 > 100000 nM | SK-MEL-5 > 100000 nM | TK-10 > 100000 nM | SF-539 > 100000 nM | SK-MEL-28 > 100000 nM | MOLT-4 > 100000 nM | MDA-MB-231 > 100000 nM | MDA-MB-435 > 100000 nM | OVCAR-3 > 100000 nM | OVCAR-8 > 100000 nM | SN12C > 100000 nM | NCI-H226 > 100000 nM | SK-OV-3 > 100000 nM | PC-3 > 100000 nM | SNB-19 > 100000 nM | IGROV-1 > 100000 nM | SW-620 > 100000 nM | CCRF-CEM > 100000 nM | UACC-62 > 100000 nM | OVCAR-4 > 100000 nM | A498 > 100000 nM | Hs-578T > 100000 nM | CAKI-1 > 100000 nM | K562 > 100000 nM | HT-29 > 100000 nM | 786-0 > 100000 nM | HOP-62 > 100000 nM | SF-295 > 100000 nM | T47D > 100000 nM | UACC-257 > 100000 nM | BT-549 > 100000 nM | HCT-116 > 100000 nM | NCI-H460 > 100000 nM

CC(C)(C)C1=CC(=C2C=Cc3cc(O)ccc3O2)C=C(C(C)(C)C)C1=O
inactive: EKVX 1850 nM | OVCAR-5 2130 nM | COLO 205 1720 nM | ACHN 1690 nM | A549 1500 nM | RXF 393 1450 nM | UO-31 1240 nM | Malme-3M 1590 nM | HOP-92 1670 nM | U-251 1390 nM | M14 1690 nM | NCI-H522 1480 nM | KM12 1580 nM | DU-145 1450 nM | NCI-H23 1790 nM | SF-268 1810 nM | SNB-75 1730 nM | SK-MEL-5 1580 nM | TK-10 1700 nM | SF-539 1870 nM | SK-MEL-28 1730 nM | MDA-MB-231 1700 nM | MDA-MB-435 1500 nM | OVCAR-3 1210 nM | OVCAR-8 1700 nM | SN12C 1630 nM | NCI-H226 1850 nM | SK-OV-3 2210 nM | PC-3 1570 nM | SNB-19 1770 nM | IGROV-1 1590 nM | SW-620 1380 nM | LOX IMVI 1560 nM | UACC-62 1380 nM | OVCAR-4 1310 nM | SK-MEL-2 1630 nM | HCC 2998 1260 nM | A498 1500 nM | Hs-578T 2270 nM | CAKI-1 1620 nM | K562 2130 nM | HT-29 1650 nM | 786-0 1360 nM | HOP-62 1920 nM | SF-295 1870 nM | NCI/ADR-RES 1950 nM | UACC-257 1570 nM | BT-549 1790 nM | HCT-116 1170 nM | NCI-H460 1340 nM
1790 nM: HCT-15
active: SR 731 nM | HL-60 1080 nM | MOLT-4 435 nM | CCRF-CEM 745 nM | MCF7 1070 nM | RPMI-8226 782 nM | T47D 627 nM
